Data published in patent publication US7566724B2, “Glycine derivative and use thereof” (Toray Industries, Inc., priority 2004, dated 2009).

Assays:
[1] = tested on: leukotriene B4 production by neutrophils; test: Measurement of Inhibitory Effect on Inflammatory Mediator Production by Leukocytes (ionomycin-induced leukotriene B4 in neutrophils); assay type: cell-based; conditions: 0.5 h, human neutrophil suspension, 37° C. 30 minutes, EIA
Experimental: A mixture of human peripheral blood and physiological saline containing 3% dextran was left to stand for 30 minutes and then the upper layer was recovered. The upper layer was overlaid on Histopaque 1077 (SIGMA), and the resultant was centrifuged at 1400 rpm for 30 minutes. The supernatant was removed by aspiration and a buffer was added to the precipitate to prepare a neutrophil suspension (4×10^5 cells/mL). To the neutrophil suspension, ionomycin was added and the mixture was incubated at 37° C. for 30 minutes, followed by quantification of leukotriene B4 by EIA (Amersham, Biotrak EIA system). Each test compound was added to the neutrophil suspension before adding ionomycin. In Table 19, the IC50 of each compound is shown.

DSS-induced colitis [2] = test: Dextran Sulfate Sodium (DSS)-induced Colitis Model of Mice (1); assay type: in vivo, Female BALB/c mice; conditions: 3 w/v % DSS for 8 days, scored at day 8
Experimental: Female BALB/c mice (Charles River, Japan) of 7 to 9 weeks old were allowed to freely drink 3 w/v % dextran sulfate sodium (DSS) for 8 days to induce colitis. The non-induced (background) group was allowed to freely drink sterilized distilled water. The compound described in Example 28 was orally administered to the mice at a dose of 5 mg/kg, and the compounds described in Example 4, Example 22 and Example 78 were orally administered to the mice at a dose of 15 mg/kg every day. At day 8 from the beginning of the drinking, stool consistency was scored (0: normal stool, 2: loose stool, 4: diarrhea) by using the method described by Murthy et al (see, for example, Dig Dis Sci., 38, 1722 (1993)).

[3] = Pharmacokinetic Evaluation in Rats; assay type: in vivo; conditions: rat, male SD rats, administered orally or intravenously, plasma up to 8 hours, LC/MS/MS; for bioavailability: oral, read-out: BA(%) (bioavailability); for clearance: read-out: CLtot (total clearance) (converted)
Experimental: Each compound was dissolved at a concentration of 0.5 mg/ml in PBS or in PBS containing 10% PEG. The compound was administered orally or intravenously to male SD rats (7 to 9 weeks old). Blood was collected from the tail vein at time points up to 8 hours after the administration, and blood plasma was collected by centrifugation from each obtained blood. The blood plasma was pretreated by using the solid-phase extraction method, and the concentration of the compound was analyzed with LC/MS/MS (ESI negative mode).
As the Comparative Compound, 2-[4-((3,5-dichlorobenzensulfonylamino)methyl)benzoylamino]-5-(4-(methyl-pyrimidin-2-ylamino)phenyl)pento-4-ene acid (XXI) described in WO 99/26923 was used.
[“BA” in Table 17 means bioavailability, and “CLtot” means total clearance.]

Jurkat cells = test: Measurement of Inhibitory Effect on Leukocyte Functions (adhesion of Jurkat cells to ligand-expressing cells or ligand-immobilized plate); assay type: cell-based; conditions: Homo sapiens, 0.5 h; fluorescently labelled Jurkat cells, ligand-expressing cells or ligand-immobilized plate, 37° C. 30 minutes; read-out: IC50 (adhesion of Jurkat cells)
Experimental: Jurkat cells which are a cell line originated from human acute T cell lymphoma were allowed to react with BCECF-AM at 37° C. for 20 minutes to fluorescently label the cells. The fluorescently labelled Jurkat cells were allowed to react with ligand-expressing cells or with a ligand-immobilized plate at 37° C. for 30 minutes. After removing non-adherent cells by washing, 1% NP40 was added to lyse the adherent cells, and fluorescence intensity was measured with Cytoflow 2300 (Millipore). From the obtained fluorescence intensity, the number of adherent cells was calculated. Each test compound was reacted with the Jurkat cells before the beginning of the adhesion reaction. In Table 18, the IC50 of each compound is shown.

DSS-induced colitis [4] = test: Dextran Sulfate Sodium (DSS)-induced Colitis Model of mice (2); assay type: in vivo, Female BALB/c mice; conditions: orally 5 mg/kg every day from Day 27 to Day 31; DSS 5 to 7 days then water 5 days, repeated 3 times
Experimental: Female BALB/c mice (Charles River, Japan) of 7 to 9 weeks old were allowed to freely drink 3 w/v % dextran sulfate sodium (DSS) for 5 to 7 days, and then to freely drink sterilized distilled water for 5 days. The procedure was repeated 3 times to induce colitis. The non-induced (background) group was allowed to freely drink sterilized distilled water. The compounds described in Examples 81 and 84 were orally administered to the mice at a dose of 5 mg/kg, respectively, every day from Day 27 to Day 31 after from the beginning of the drinking, and stool consistency was scored (0: normal stool, 2: loose stool, 4: diarrhea) by using the method described by Murthy et al (see, for example, Dig Dis Sci., 38, 1722 (1993).

Row | SMILES | IC50 [1] | bioavailability [3] | clearance [3] | IC50 (Jurkat cells) | rate of amelioration (stool consistency score) (DSS-induced colitis [2]; orally 15 mg/kg every day) | rate of amelioration (stool consistency score) (DSS-induced colitis [4]) | rate of amelioration (stool consistency score) (DSS-induced colitis [2]; orally 5 mg/kg every day)
1 | CN(c1ccc(/C=C/CC(NC(=O)c2c(Cl)cccc2Cl)C(=O)O)cc1)c1ncccn1 (centres unmarked) [Example 22, (E)-2-(2,6-Dichlorobenzamido)-5-[4-(methyl-pyrimidin-2-ylamino)phenyl]pent-4-enoic acid] | 176000 nM | 61.7% | 5.1 mL/min/kg | 160 nM | 67% | – | –
2 | CC(C)N(c1ccc(/C=C/CC(NC(=O)c2c(Cl)cccc2Cl)C(=O)O)cc1)c1ncccn1 (centres unmarked) [Example 28, (E)-2-(2,6-Dichlorobenzamido)-5-[4-(isopropyl-pyrimidin-2-ylamino)phenyl]pent-4-enoic acid] | 7400 nM | 80.6% | 14.9 mL/min/kg | 56 nM | – | – | 71%
3 | COC1(c2ccc(/C=C/CC(NC(=O)c3c(Cl)cccc3Cl)C(=O)O)cc2)CCOCC1 (centres unmarked) [Example 4, (E)-2-(2,6-Dichlorobenzamido)-5-[4-(4-methoxytetrahydropyran-4-yl)-phenyl]pent-4-enoic acid] | 52300 nM | 55% | 10.1 mL/min/kg | 247 nM | 44% | – | –
4 | COC1(c2ccc(/C=C/C[C@H](NC(=O)c3c(Cl)cccc3Cl)C(=O)[O-])cc2)CCOCC1.[Na+] [Example 78, (S,E)-2-(2,6-Dichlorobenzamido)-5-[4-(4-methoxytetrahydropyran-4-yl)-phenyl]pent-4-enoic acid sodium salt] | – | – | – | 54 nM | 40% | – | –

More lines, main results first:

Row | IC50 [1] | bioavailability [3] | clearance [3] | IC50 (Jurkat cells) | SMILES | rate of amelioration (stool consistency score) (DSS-induced colitis [2]; orally 15 mg/kg every day) | rate of amelioration (stool consistency score) (DSS-induced colitis [4]) | rate of amelioration (stool consistency score) (DSS-induced colitis [2]; orally 5 mg/kg every day)
5 | – | 52.1% | 17 mL/min/kg | 82 nM | CN(c1ccc(/C=C/C[C@H](NC(=O)c2c(Cl)cccc2Cl)C(=O)[O-])cc1)c1ncccn1.[Na+] [Example 81, (S,E)-2-(2,6-Dichlorobenzamido)-5-[4-(methyl-pyrimidin-2-ylamino)phenyl]pent-4-enoic acid sodium salt] | – | 68.8% | –
6 | – | – | – | 30 nM | CC(C)N(c1ccc(/C=C/C[C@H](NC(=O)c2c(Cl)cccc2Cl)C(=O)[O-])cc1)c1ncccn1.[Na+] [Example 84, (S,E)-2-(2,6-Dichlorobenzamido)-5-[4-(isopropyl-pyrimidin-2-ylamino)phenyl]pent-4-enoic acid sodium salt] | – | 82.4% | –
